Laboratory results reported in the supplement of paper PMC4862054.

Legend:
Test in all cases: normalised viability (% of control), CellTiter-Blue; higher = more viable cells (about 100 = DMSO control)
Details in all cases: incubation time: 72 h
[1] = system: MDA-MB-468
Protocol: (§1)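 DSRT, CellTiter-Blue viability, 72 h incubation. Signal is normalised to DMSO and benzethonium chloride controls. Value is the normalised response at dose 3.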

[2] = system: HDQ-P1
Protocol: as §1

[3] = system: MDA-MB-231
Protocol: as §1

[4] = system: CAL-148
Protocol: as §1

[5] = system: DU-4475
Protocol: as §1

[6] = system: HCC1937
Protocol: as §1

[7] = system: CAL-120
Protocol: as §1

[8] = system: SK-BR-3
Protocol: as §1

[9] = system: HCC1599
Protocol: as §1

[10] = system: MFM-223
Protocol: as §1

[11] = system: HCC1143
Protocol: as §1

[12] = system: Hs578T
Protocol: as §1

[13] = system: CAL-51
Protocol: as §1

[14] = system: MDA-MB-436
Protocol: as §1

[15] = system: BT-549
Protocol: as §1

[16] = system: BT-474
Protocol: as §1

[17] = system: MDA-MB-453
Protocol: as §1

[18] = system: CAL-85-1
Protocol: as §1

[19] = system: MDA-MB-468; remark: listed apart in the source
In short: (§2)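 Each entry is normalised viability at a single listed concentration within a series. It comes from breast cancer cell lines incubated 72 h with compound in 384-well plates, then measured with CellTiter-Blue fluorescence at 560/590 nm. Every plate was normalised between vehicle (100) and a positive kill control (0).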

[20] = system: HDQ-P1; remark: listed apart in the source
In short: as §2

[21] = system: MDA-MB-231; remark: listed apart in the source
In short: as §2

[22] = system: CAL-148; remark: listed apart in the source
In short: as §2

[23] = system: CAL-120; remark: listed apart in the source
In short: as §2

[24] = system: SK-BR-3; remark: listed apart in the source
In short: as §2

[25] = system: HCC1599; remark: listed apart in the source
In short: as §2

[26] = system: MFM-223; remark: listed apart in the source
In short: as §2

[27] = system: HCC1143; remark: listed apart in the source
In short: as §2

[28] = system: Hs578T; remark: listed apart in the source
In short: as §2

[29] = system: MDA-MB-436; remark: listed apart in the source
In short: as §2

[30] = system: CAL-85-1; remark: listed apart in the source
In short: as §2

CN1CCN(c2ccc3nc(-c4c(N)c5c(F)cccc5[nH]c4=O)[nH]c3c2)CC1 [Dovitinib]
Details | normalised viability [%]
[1], 100 nM | 86.9
[2], 10 nM | 95.7
[3], 100 nM | 80.2
[4], 10 nM | 94.7
[5], 10 nM | 99.8
[6], 100 nM | 95.6
[7], 100 nM | 86.4
[8], 100 nM | 101
[9], 100 nM | 88.2
[10], 100 nM | 80.2
[11], 100 nM | 84.5
[12], 100 nM | 87
[13], 10 nM | 111
[14], 100 nM | 99.7
[15], 100 nM | 90.5
[16], 100 nM | 115
[17], 10 nM | 87.7
[18], 10 nM | 89.2
[19], 10 nM | 104
[19], 1000 nM | 90.6
[19], 10000 nM | 72.6
[20], 3 nM | 91
[20], 30 nM | 93.3
[20], 100 nM | 88.3
[21], 10 nM | 96.1
[21], 1000 nM | 75.2
[21], 10000 nM | 86.4
[22], 3 nM | 91.6
[22], 30 nM | 95.5
[22], 100 nM | 89.6
[23], 10 nM | 88.3
[23], 1000 nM | 91.8
[23], 10000 nM | 83.7
[24], 10 nM | 84.8
[24], 1000 nM | 94.8
[24], 10000 nM | 72.9
[25], 10 nM | 98
[25], 1000 nM | 98.8
[25], 10000 nM | 89
[26], 10 nM | 80.5
[26], 1000 nM | 56.4
[26], 10000 nM | 61
[27], 10 nM | 86.9
[27], 1000 nM | 87.9
[27], 10000 nM | 69.8
[28], 10 nM | 106
[28], 1000 nM | 99.3
[28], 10000 nM | 96
[29], 10 nM | 86.7
[29], 1000 nM | 97
[29], 10000 nM | 81.1
[30], 3 nM | 85.3
[30], 30 nM | 86.4
[30], 100 nM | 97.5

COc1cccc2c1C(=O)c1c(O)c3c(c(O)c1C2=O)C[C@@](O)(C(C)=O)C[C@@H]3O[C@H]1C[C@H](N)[C@H](O)[C@H](C)O1 [Daunorubicin]
Details | normalised viability [%]
[1], 10 nM | 99.8
[2], 1 nM | 153
[3], 10 nM | 85.2
[4], 1 nM | 103
[5], 1 nM | 95.8
[6], 10 nM | 77.9
[7], 10 nM | 79
[8], 10 nM | 87.3
[9], 10 nM | 104
[10], 10 nM | 90.9
[11], 10 nM | 79.2
[12], 10 nM | 85.9
[13], 1 nM | 99.8
[14], 10 nM | 92.1
[15], 10 nM | 95.1
[16], 10 nM | 115
[17], 1 nM | 103
[18], 1 nM | 102
[19], 1 nM | 102
[19], 100 nM | 52.2
[19], 1000 nM | 6.86
[20], 0.3 nM | 133
[20], 3 nM | 94.5
[20], 10 nM | 97.3
[21], 1 nM | 101
[21], 100 nM | 38.4
[21], 1000 nM | 8.64
[22], 0.3 nM | 88.5
[22], 3 nM | 106
[22], 10 nM | 77.6
[23], 1 nM | 80.3
[23], 100 nM | 35.9
[23], 1000 nM | 9.51
[24], 1 nM | 103
[24], 100 nM | 40.1
[24], 1000 nM | 6.42
[25], 1 nM | 82.5
[25], 100 nM | 98.8
[25], 1000 nM | 53.7
[26], 1 nM | 108
[26], 100 nM | 104
[26], 1000 nM | 26.7
[27], 1 nM | 81.4
[27], 100 nM | 52.7
[27], 1000 nM | 32
[28], 1 nM | 111
[28], 100 nM | 64.1
[28], 1000 nM | 6.42
[29], 1 nM | 100
[29], 100 nM | 50.4
[29], 1000 nM | 17.3
[30], 0.3 nM | 87.3
[30], 3 nM | 86.8
[30], 10 nM | 89.1

CC(C)C[C@H](NC(=O)[C@H](Cc1ccccc1)NC(=O)c1cnccn1)B(O)O [Bortezomib]
Details | normalised viability [%]
[1], 10 nM | 12
[2], 1 nM | 83.8
[3], 10 nM | 16.2
[4], 1 nM | 91.2
[5], 1 nM | 120
[6], 10 nM | 19.6
[7], 10 nM | 27.3
[8], 10 nM | 22.4
[9], 10 nM | 110
[10], 10 nM | 38.1
[11], 10 nM | 52.1
[12], 10 nM | 87.6
[13], 1 nM | 99.9
[14], 10 nM | 98.9
[15], 10 nM | 39.5
[16], 10 nM | 50.8
[17], 1 nM | 105
[18], 1 nM | 106
[19], 1 nM | 88.3
[19], 100 nM | 3.55
[19], 1000 nM | 2.21
[20], 0.3 nM | 79.4
[20], 3 nM | 87.9
[20], 10 nM | 10.2
[21], 1 nM | 92.4
[21], 100 nM | 2.05
[21], 1000 nM | 0.27
[22], 0.3 nM | 99.6
[22], 3 nM | 89
[22], 10 nM | 94.4
[23], 1 nM | 95.8
[23], 100 nM | 4.31
[23], 1000 nM | 3.21
[24], 1 nM | 90.2
[24], 100 nM | 17.5
[24], 1000 nM | 15.6
[25], 1 nM | 130
[25], 100 nM | 64.5
[25], 1000 nM | 45.2
[26], 1 nM | 104
[26], 100 nM | 16.9
[26], 1000 nM | 15.3
[27], 1 nM | 81
[27], 100 nM | 19.4
[27], 1000 nM | 17.4
[28], 1 nM | 91.1
[28], 100 nM | 2.89
[28], 1000 nM | 0.76
[29], 1 nM | 101
[29], 100 nM | 12.2
[29], 1000 nM | 9.29
[30], 0.3 nM | 104
[30], 3 nM | 92.1
[30], 10 nM | 36.5
